{
  "source": "patent US8163771B2",
  "about": "“11 β-HSD1 modulators” (Exelixis, Inc., priority 2008, dated 2012)",
  "data": [
    {"target": "T1, recombinant human 11 β-HSD1 (Homo sapiens, UniProt P28845)", "T1 construct": "made in house; host or cells: E. coli", "T1 sequence (P28845 whole entry)": "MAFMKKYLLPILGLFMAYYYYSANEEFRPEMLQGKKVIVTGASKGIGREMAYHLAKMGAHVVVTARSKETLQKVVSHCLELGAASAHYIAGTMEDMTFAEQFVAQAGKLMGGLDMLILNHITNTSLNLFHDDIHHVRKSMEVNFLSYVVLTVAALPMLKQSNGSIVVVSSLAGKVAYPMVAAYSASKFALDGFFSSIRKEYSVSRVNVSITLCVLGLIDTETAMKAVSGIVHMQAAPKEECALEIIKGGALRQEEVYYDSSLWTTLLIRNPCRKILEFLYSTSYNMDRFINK", "assay": "11 β-HSD1 SPA Assay (Scintillation Proximity Assay)", "format": "biochemical", "outline": "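E. coli-expressed human enzyme (30-100 nM) with tritiated cortisone 40 nM and NADPH 1 mM in HEPES buffer pH7.4, 2 hours at room temperature. Stopped with protein A SPA beads carrying anti-cortisol antibody and glycyrrhetinic acid; counted after overnight incubation. IC50 from percent inhibition between no-enzyme and no-compound signals.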", "units": {"IC50": "nM"}, "values": [
      {"smiles": "CC(C)(Oc1ccc(F)cc1C(F)(F)F)C(=O)N[C@H]1C[C@H]2CC[C@@H](C1)N2c1ccc(-c2nnn[nH]2)nc1", "note": "[Example 292, 2-{[4-fluoro-2-(trifiuoromethyl)phenyl]oxy}-2-methyl-N-{8-[6-(1H-tetrazol-5-yl)pyridin-3-yl]-8-azabicyclo[3.2.1]oct-3-endo-yl}propanamide]", "IC50": "< 200"},
      {"smiles": "CC(C)(Oc1ccc(F)cc1Cl)C(=O)N[C@H]1C[C@H]2CC[C@@H](C1)N2c1ncc(C(=O)NCC(F)(F)F)cc1F", "note": "[Example 159, 6-[3-endo-({2-[(2-chloro-4-fluorophenyl)oxy]-2-methylpropanoyl}amino)-8-azabicyclo[3.2.1]oct-8-yl]-5-fluoro-N-(2,2,2-trifluoroethyl)pyridine-3-carboxamide]", "IC50": "< 200"},
      {"smiles": "CC(C)(Oc1ncc(Cl)cc1C(F)(F)F)C(=O)N[C@H]1C[C@H]2CC[C@@H](C1)N2c1ccc(S(C)(=O)=O)cn1", "note": "[Example 314, 2-{[5-chloro-3-(trifluoromethyl)pyridin-2-yl]oxy}-2-methyl-N-{8-[5-(methylsulfonyl)pyridin-2-yl]-8-azabicyclo[3.2.1]oct-3-endo-yl}propanamide]", "IC50": "< 200"},
      {"smiles": "CC(C)(Oc1ncc(Cl)cc1Cl)C(=O)N[C@H]1C[C@H]2CC[C@@H](C1)N2c1ccc(S(C)(=O)=O)cc1", "note": "[Example 175, 2-[(3,5-dichloropyridin-2-yl)oxy]-2-methyl-N-{8-[4-(methylsulfonyl)phenyl]-8-azabicyclo[3.2.1]oct-3-endo-yl}propanamide]", "IC50": "< 200"},
      {"smiles": "CC(C)(Oc1ccc(Cl)cc1Cl)C(=O)N[C@H]1C[C@H]2CC[C@@H](C1)N2c1ccc(S(N)(=O)=O)cn1", "note": "[Example 125, N-{8-[5-(aminosulfonyl)pyridin-2-yl]-8-azabicyclo[3.2.1]oct-3-endo-yl}-2-[(2,4-dichlorophenyl)oxy]-2-methylpropanamide]", "IC50": "< 200"},
      {"smiles": "CC(C)(Oc1ccccc1Cl)C(=O)N[C@H]1C[C@H]2CC[C@@H](C1)N2c1ccc(C(=O)NC2CC2)cn1", "note": "[Example 24, 6-[3-endo-({2-[(2-chlorophenyl)oxy]-2-methylpropanoyl}amino)-8-azabicyclo[3.2.1]oct-8-yl]-N-cyclopropylpyridine-3-carboxamide]", "IC50": "< 200"},
      {"smiles": "COc1cc(F)ccc1OC(C)(C)C(=O)N[C@H]1C[C@H]2CC[C@@H](C1)N2c1ccc(S(C)(=O)=O)cn1", "note": "[Example 220]", "IC50": "< 200"},
      {"smiles": "CC(C)(Oc1ccc(Cl)c(Cl)c1)C(=O)N[C@H]1C[C@H]2CC[C@@H](C1)N2c1ccc(S(C)(=O)=O)cn1", "note": "[Example 204, 2-[(3,4-dichlorophenyl)oxy]-2-methyl-N-{8-[5-(methylsulfonyl)pyridin-2-yl]-8-azabicyclo[3.2.1]oct-3-endo-yl}propanamide]", "IC50": "< 200"},
      {"smiles": "CC(C)(Oc1cc(OCCN2CCOCC2)c(Cl)cc1Cl)C(=O)N[C@H]1C[C@H]2CC[C@@H](C1)N2c1ccc(C(=O)NCC(F)(F)F)cn1", "note": "[Example 407, 6-(3-endo-(2-(2,4-dichloro-5-(2-morpholinoethoxy)phenoxy)-2-methylpropanamido)-8-azabicyclo[3.2.1]octan-8-yl)-N-(2,2,2-trifluoroethyl)nicotinamide]", "IC50": "< 200"},
      {"smiles": "CC(C)(Oc1ccc(F)cc1Cl)C(=O)N[C@H]1C[C@H]2CC[C@@H](C1)N2c1ccc(S(C)(=O)=O)cc1", "note": "[Example 173, 2-[(2-chloro-4-fluorophenyl)oxy]-2-methyl-N-{8-[4-(methylsulfonyl)phenyl]-8-azabicyclo[3.2.1]oct-3-endo-yl}propanamide]", "IC50": "< 200"},
      {"smiles": "CC(C)(Oc1cccc2[nH]ncc12)C(=O)N[C@H]1C[C@H]2CC[C@@H](C1)N2c1ccc(C(=O)NCC(F)(F)F)cn1", "note": "[Example 385, 6-(3-endo-{[2-(1H-indazol-4-yloxy)-2-methylpropanoyl]amino}-8-azabicyclo[3.2.1]oct-8-yl)-N-(2,2,2-trifluoroethyl)pyridine-3-carboxamide]", "IC50": "< 200"},
      {"smiles": "CC(C)(C(=O)N[C@H]1C[C@H]2CC[C@@H](C1)N2c1ccc(C(=O)NCC(F)(F)F)cn1)c1ccc(Cl)cc1", "note": "[Example 26, 6-(3-endo-{[2-(4-chlorophenyl)-2-methylpropanoyl]amino}-8-azabicyclo[3.2.1]oct-8-yl)-N-(2,2,2-trifluoroethyl)pyridine-3-carboxamide]", "IC50": "< 200"},
      {"smiles": "CC(C)(Oc1cc(C(C)(C)O)c(Cl)cc1F)C(=O)N[C@H]1C[C@H]2CC[C@@H](C1)N2c1ccc(C(=O)NCC(F)F)cn1", "note": "[Example 466, 6-(3-endo-(2-(4-chloro-2-fluoro-5-(2-hydroxypropan-2-yl)phenoxy)-2-methylpropanamido)-8-azabicyclo[3.2.1]octan-8-yl)-N-(2,2-difluoroethyl)nicotinamide]", "IC50": "< 200"},
      {"smiles": "CC(C)(Oc1ncc(Cl)cc1C(F)(F)F)C(=O)N[C@H]1C[C@H]2CC[C@@H](C1)N2c1ccc(C(=O)NCC(F)(F)F)cn1", "note": "[Example 273, 6-{3-endo-[(2-{[5-chloro-3-(trifluoromethyl)pyridin-2-yl]oxy}-2-methylpropanoyl)amino]-8-azabicyclo[3.2.1]oct-8-yl}-N-(2,2,2-trifluoroethyl)pyridine-3-carboxamide]", "IC50": "< 200"},
      {"smiles": "CC(C)(Oc1ccc(Cl)cc1Cl)C(=O)N1[C@@H]2CC[C@H]1C[C@@H](Nc1ccc(C(N)=O)cn1)C2", "note": "[Example 302, 6-[(8-{2-[(2,4-dichlorophenyl)oxy]-2-methylpropanoyl}-8-azabicyclo[3.2.1]oct-3-endo-yl)amino]pyridine-3-carboxamide]", "IC50": "< 200"},
      {"smiles": "CC(C)(Oc1ccc(F)cc1Cl)C(=O)N[C@H]1C[C@H]2CC[C@@H](C1)N2c1ccc(C(=O)NC2CC2)cn1", "note": "[Example 265, 6-[3-endo-({2-[(2-chloro-4-fluorophenyl)oxy]-2-methylpropanoyl}amino)-8-azabicyclo[3.2.1]oct-8-yl]-N-cyclopropylpyridine-3-carboxamide]", "IC50": "< 200"},
      {"smiles": "CC(C)(Oc1cc(-c2ccc(F)cc2)ccc1Cl)C(=O)N[C@H]1C[C@H]2CC[C@@H](C1)N2c1ccc(C(N)=O)cn1", "note": "[Example 346, 6-[3-endo-({2-[(4-chloro-4′-fluorobiphenyl-3-yl)oxy]-2-methylpropanoyl}amino)-8-azabicyclo[3.2.1]oct-8-yl]pyridine-3-carboxamide]", "IC50": "< 200"},
      {"smiles": "CC(C)(Oc1ccc(C(F)(F)F)cc1)C(=O)N[C@H]1C[C@H]2CC[C@@H](C1)N2c1ccc(C(N)=O)cn1", "note": "[Example 172, 6-{3-endo-[(2-methyl-2-{[4-(trifluoromethyl)phenyl]oxy}propanoyl)amino]-8-azabicyclo[3.2.1]oct-8-yl}pyridine-3-carboxamide]", "IC50": "< 200"},
      {"smiles": "CC(=O)c1ccc(N2[C@@H]3CC[C@H]2C[C@@H](NC(=O)C2(c4ccc(Cl)cc4)CC2)C3)nc1", "note": "[Example 57, N-[8-(5-acetylpyridin-2-yl)-8-azabicyclo[3.2.1]oct-3-endo-yl]-1-(4-chlorophenyl)cyclopropanecarboxamide]", "IC50": "< 200"},
      {"smiles": "C[C@H](NC(=O)c1ccc(N2C3CCC2CC(NC(=O)C(C)(C)Oc2ccc(Cl)cc2F)C3)nc1)C(F)(F)F", "note": "(stereo partly drawn) [Example 435, 6-(3-endo-{[2-(4-chloro-2-fluorophenoxy)-2-methylpropanoyl]amino}-8-azabicyclo[3.2.1]oct-8-yl)-N-[(2S)-1,1,1-trifluoropropan-2-yl]pyridine-3-carboxamide]", "IC50": "< 200"},
      {"smiles": "Cc1cc(F)ccc1OC(C)(C)C(=O)N[C@H]1C[C@H]2CC[C@@H](C1)N2c1ccc(S(N)(=O)=O)cn1", "note": "[Example 218, N-{8-[5-(aminosulfonyl)pyridin-2-yl]-8-azabicyclo[3.2.1]oct-3-endo-yl}-2-[(4-fluoro-2-methylphenyl)oxy]-2-methylpropanamide]", "IC50": "< 200"},
      {"smiles": "CC(C)(Oc1ccc(F)c(F)c1)C(=O)N[C@H]1C[C@H]2CC[C@@H](C1)N2c1ccc(C(=O)NCC(F)(F)F)cc1", "note": "[Example 210, 4-[3-endo-({2-[(3,4-difluorophenyl)oxy]-2-methylpropanoyl}amino)-8-azabicyclo[3.2.1]oct-8-yl]-N-(2,2,2-trifluoroethyl)benzamide]", "IC50": "< 200"},
      {"smiles": "CC(C)(Oc1ccc(Cl)cc1Cl)C(=O)N[C@H]1C[C@H]2CC[C@@H](C1)N2c1cccc(S(C)(=O)=O)c1", "note": "[Example 156, 2-[(2,4-dichlorophenyl)oxy]-2-methyl-N-{8-[3-(methylsulfonyl)phenyl]-8-azabicyclo[3.2.1]oct-3-endo-yl}propanamide]", "IC50": "< 2000"},
      {"smiles": "CC(C)(Oc1cc(C(C)(C)C(N)=O)c(Cl)cc1Cl)C(=O)N[C@H]1C[C@H]2CC[C@@H](C1)N2c1ccc(C(=O)NCC(F)(F)F)cn1", "note": "[Example 446, 6-[3-endo-({2-[5-(1-amino-2-methyl-1-oxopropan-2-yl)-2,4-dichlorophenoxy]-2-methylpropanoyl}amino)-8-azabicyclo[3.2.1]oct-8-yl]-N-(2,2,2-trifluoroethyl)pyridine-3-carboxamide]", "IC50": "< 200"},
      {"smiles": "CC(C)(Oc1ccc(Cl)cn1)C(=O)N[C@H]1C[C@H]2CC[C@@H](C1)N2c1ccc(C(=O)NCC(F)(F)F)cn1", "note": "[Example 108, 6-[3-endo-({2-[(5-chloropyridin-2-yl)oxy]-2-methylpropanoyl}amino)-8-azabicycio[3.2.1]oct-8-yl]-N-(2,2,2-trifluoroethyl)pyridine-3-carboxamide]", "IC50": "< 200"},
      {"smiles": "COc1cc(F)ccc1OC(C)(C)C(=O)N[C@H]1C[C@H]2CC[C@@H](C1)N2c1ccc(S(N)(=O)=O)cn1", "note": "[Example 221, N-{8-[5-(aminosulfonyl)pyridin-2-yl]-8-azabicyclo[3.2.1]oct-3-endo-yl}-2-{[4-fluoro-2-(methyloxy)phenyl]oxy}-2-methylpropanamide]", "IC50": "< 200"},
      {"smiles": "CC(C)(Oc1ccc(Cl)cc1Cl)C(=O)N[C@H]1C[C@H]2CC[C@@H](C1)N2Cc1ccc(C(N)=O)cn1", "note": "[Example 323, 6-{[3-endo-({2-[(2,4-dichlorophenyl)oxy]-2-methylpropanoyl}amino)-8-azabicyclo[3.2.1]oct-8-yl]methyl}pyridine-3-carboxamide]", "IC50": "< 2000"},
      {"smiles": "CC(C)(Oc1ccc(Cl)cc1C(=O)O)C(=O)N[C@H]1C[C@H]2CC[C@@H](C1)N2c1ccc(C(=O)NCC(F)(F)F)cn1", "note": "[Example 375, 5-chloro-2-({2-methyl-1-oxo-1-[(8-{5-[(2,2,2-trifluoroethyl)carbamoyl]pyridin-2-yl}-8-azabicyclo[3.2.1]oct-3-endo-yl)amino]propan-2-yl}oxy)benzoic acid]", "IC50": "< 200"}
    ]}
  ]
}
